Measurements published in publication PMC5578999, “Novel quinolone chalcones targeting colchicine-binding pocket kill multidrug-resistant cancer cells by inhibiting tubulin activity and MRP1 function” (Scientific Reports, 2017).

What was measured:
Assay in all cases: NCI-60 SRB screen
Assay type in all cases: cell-based
UACC-257 = system: UACC-257
Source text: (§1) Supplementary Figure l egend
(§2) 10μ M of CTR-20 was used to examine the drug’s efficac y against the NC I-60 cancer cell li nes including: six leukemia cell lines, nine non- small cell lung cancer cell lines, seven color ect al cancer cell lines, six CNS cancer cell lines, nine melanoma cell lines, seven ovari an can cer cell lines, seven ren al can cer cell lines, two prostate cancer cell lines and six breast cancer cell lines. The scr eenin g was car r ied out b y the US National Cancer Institute (NC I) us i n g a sulforhodamine B (SRB) colorimetric assay. […]
(§3) out by the NC I using five different doses of CTR -20.

SF-539 = system: SF-539
Source text: as §1, §2, §3

HCT-15 = system: HCT-15
Source text: as §1, §2, §3

U251 = system: U251
Source text: as §1, §2, §3

TK-10 = system: TK-10
Source text: as §1, §2, §3

SN12C = system: SN12C
Source text: as §1, §2, §3

NCI-H460 = system: NCI-H460
Source text: as §1, §2, §3

SK-MEL-2 = system: SK-MEL-2
Source text: as §1, §2, §3

K-562 = system: K-562
Source text: as §1, §2, §3

SK-OV-3 = system: SK-OV-3
Source text: as §1, §2, §3

HCC-2998 = system: HCC-2998
Source text: as §1, §2, §3

CCRF-CEM = system: CCRF-CEM
Source text: as §1, §2, §3

[1] = Homo sapiens, read-out: LC50 (the source's name)

COc1ccc2[nH]c(=O)c(/C=C/C(=O)c3ccccc3OC)cc2c1 [CTR-20, (E)-6-Methoxy-3-(3-(2-methoxyphenyl)-3-oxoprop-1-enyl) quinolin-2(1H)-one]
Log10GI50 (UACC-257): -5.86 Molar
Log10LC50 (UACC-257): -5.17 Molar
Log10TGI (UACC-257): -5.52 Molar
TGI (UACC-257): 3.05E-6 Molar
Growth Percent (UACC-257; 1.00E-5 Molar): 37.62%
GI50 (UACC-257; Homo sapiens): 1.38 µM
CC50 (UACC-257; [1]): 6.75 µM
Percent Growth (UACC-257; Log10 Concentration -4.0): -100%
Percent Growth (UACC-257; Log10 Concentration -5.0): -75%
Percent Growth (UACC-257; Log10 Concentration -6.0): 70%
Percent Growth (UACC-257; Log10 Concentration -7.0): 101%
Percent Growth (UACC-257; Log10 Concentration -8.0): 98%
Log10GI50 (SF-539): -6.35 Molar
Log10LC50 (SF-539): -4.87 Molar
Log10TGI (SF-539): -5.60 Molar
TGI (SF-539): 2.49E-6 Molar
Growth Percent (SF-539; 1.00E-5 Molar): -10.00%
GI50 (SF-539; Homo sapiens): 0.443 µM
LC50 (concentration killing 50% of starting cells) (SF-539; Homo sapiens): 13.4 µM
Percent Growth (SF-539; Log10 Concentration -4.0): -99%
Percent Growth (SF-539; Log10 Concentration -5.0): -43%
Percent Growth (SF-539; Log10 Concentration -6.0): 28%
Percent Growth (SF-539; Log10 Concentration -7.0): 90%
Percent Growth (SF-539; Log10 Concentration -8.0): 90%
Log10GI50 (HCT-15): -6.40 Molar
Log10LC50 (HCT-15): -5.08 Molar
Log10TGI (HCT-15): -5.69 Molar
TGI (HCT-15): 2.05E-6 Molar
Growth Percent (HCT-15; 1.00E-5 Molar): 11.32%
GI50 (HCT-15; Homo sapiens): 0.395 µM
LC50 (HCT-15; Homo sapiens): 8.29 µM
Percent Growth (HCT-15; Log10 Concentration -4.0): -85%
Percent Growth (HCT-15; Log10 Concentration -5.0): -57%
Percent Growth (HCT-15; Log10 Concentration -6.0): 26%
Percent Growth (HCT-15; Log10 Concentration -7.0): 86%
Percent Growth (HCT-15; Log10 Concentration -8.0): 95%
Log10GI50 (U251): -6.28 Molar
Log10LC50 (U251): -5.38 Molar
Log10TGI (U251): -5.77 Molar
TGI (U251): 1.70E-6 Molar
Growth Percent (U251; 1.00E-5 Molar): 5.14%
GI50 (U251; Homo sapiens, U-251): 0.521 µM
LC50 (U251; Homo sapiens, U-251): 4.21 µM
Percent Growth (U251; Log10 Concentration -4.0): -99%
Percent Growth (U251; Log10 Concentration -5.0): -98%
Percent Growth (U251; Log10 Concentration -6.0): 29%
Percent Growth (U251; Log10 Concentration -7.0): 103%
Percent Growth (U251; Log10 Concentration -8.0): 102%
Log10GI50 (TK-10): -5.64 Molar
Log10LC50 (TK-10): -4.44 Molar
Log10TGI (TK-10): -4.88 Molar
TGI (TK-10): 1.31E-5 Molar
Growth Percent (TK-10; 1.00E-5 Molar): 42.01%
GI50 (TK-10; Homo sapiens): 2.31 µM
CC50 (TK-10; [1]): 36.4 µM
Percent Growth (TK-10; Log10 Concentration -4.0): -99%
Percent Growth (TK-10; Log10 Concentration -5.0): 13%
Percent Growth (TK-10; Log10 Concentration -6.0): 71%
Percent Growth (TK-10; Log10 Concentration -7.0): 93%
Percent Growth (TK-10; Log10 Concentration -8.0): 91%
Log10GI50 (SN12C): -6.27 Molar
Log10LC50 (SN12C): -4.44 Molar
Log10TGI (SN12C): -4.99 Molar
TGI (SN12C): 1.03E-5 Molar
Growth Percent (SN12C; 1.00E-5 Molar): 8.57%
GI50 (SN12C; Homo sapiens): 0.537 µM
CC50 (SN12C; [1]): 36.7 µM
Percent Growth (SN12C; Log10 Concentration -4.0): -89%
Percent Growth (SN12C; Log10 Concentration -5.0): 1%
Percent Growth (SN12C; Log10 Concentration -6.0): 32%
Percent Growth (SN12C; Log10 Concentration -7.0): 100%
Percent Growth (SN12C; Log10 Concentration -8.0): 102%
Log10GI50 (NCI-H460): -6.42 Molar
Log10LC50 (NCI-H460): -4.44 Molar
Log10TGI (NCI-H460): -5.65 Molar
TGI (NCI-H460): 2.25E-6 Molar
Growth Percent (NCI-H460; 1.00E-5 Molar): 1.79%
GI50 (NCI-H460; Homo sapiens): 0.38 µM
CC50 (NCI-H460; [1]): 36.7 µM
Percent Growth (NCI-H460; Log10 Concentration -4.0): -71%
Percent Growth (NCI-H460; Log10 Concentration -5.0): -22%
Percent Growth (NCI-H460; Log10 Concentration -6.0): 12%
Percent Growth (NCI-H460; Log10 Concentration -7.0): 102%
Percent Growth (NCI-H460; Log10 Concentration -8.0): 105%
Log10GI50 (SK-MEL-2): -6.16 Molar
Log10LC50 (SK-MEL-2): -4.54 Molar
Log10TGI (SK-MEL-2): -5.36 Molar
TGI (SK-MEL-2): 4.39E-6 Molar
Growth Percent (SK-MEL-2; 1.00E-5 Molar): -2.52%
GI50 (SK-MEL-2; Homo sapiens): 0.694 µM
CC50 (SK-MEL-2; [1]): 29.2 µM
Percent Growth (SK-MEL-2; Log10 Concentration -4.0): -81%
Percent Growth (SK-MEL-2; Log10 Concentration -5.0): -23%
Percent Growth (SK-MEL-2; Log10 Concentration -6.0): 41%
Percent Growth (SK-MEL-2; Log10 Concentration -7.0): 99%
Percent Growth (SK-MEL-2; Log10 Concentration -8.0): 95%
Log10GI50 (K-562): -6.79 Molar
Log10LC50 (K-562): > -4.00 Molar
Log10TGI (K-562): > -4.00 Molar
TGI (K-562): > 1.00E-4 Molar
Growth Percent (K-562; 1.00E-5 Molar): 4.24%
GI50 (K-562; Homo sapiens, K562): 0.162 µM
CC50 (K-562; Homo sapiens, K562, read-out: LC50 (the source's name)): > 100 µM
Percent Growth (K-562; Log10 Concentration -4.0): 4%
Percent Growth (K-562; Log10 Concentration -5.0): 6%
Percent Growth (K-562; Log10 Concentration -6.0): 11%
Percent Growth (K-562; Log10 Concentration -7.0): 61%
Percent Growth (K-562; Log10 Concentration -8.0): 101%
Log10GI50 (SK-OV-3): -5.65 Molar
Log10LC50 (SK-OV-3): -4.44 Molar
Log10TGI (SK-OV-3): -4.89 Molar
TGI (SK-OV-3): 1.28E-5 Molar
Growth Percent (SK-OV-3; 1.00E-5 Molar): 6.12%
GI50 (SK-OV-3; Homo sapiens): 2.23 µM
CC50 (SK-OV-3; [1]): 36.2 µM
Percent Growth (SK-OV-3; Log10 Concentration -4.0): -99%
Percent Growth (SK-OV-3; Log10 Concentration -5.0): 12%
Percent Growth (SK-OV-3; Log10 Concentration -6.0): 70%
Percent Growth (SK-OV-3; Log10 Concentration -7.0): 99%
Percent Growth (SK-OV-3; Log10 Concentration -8.0): 87%
Log10GI50 (HCC-2998): -5.80 Molar
Log10LC50 (HCC-2998): -5.23 Molar
Log10TGI (HCC-2998): -5.52 Molar
TGI (HCC-2998): 3.03E-6 Molar
Growth Percent (HCC-2998; 1.00E-5 Molar): 23.11%
GI50 (HCC-2998; Homo sapiens): 1.57 µM
CC50 (HCC-2998; [1]): 5.85 µM
Percent Growth (HCC-2998; Log10 Concentration -4.0): -91%
Percent Growth (HCC-2998; Log10 Concentration -5.0): -91%
Percent Growth (HCC-2998; Log10 Concentration -6.0): 84%
Percent Growth (HCC-2998; Log10 Concentration -7.0): 97%
Percent Growth (HCC-2998; Log10 Concentration -8.0): 99%
Log10GI50 (CCRF-CEM): -6.41 Molar
Log10LC50 (CCRF-CEM): > -4.00 Molar
Log10TGI (CCRF-CEM): > -4.00 Molar
TGI (CCRF-CEM): > 1.00E-4 Molar
Growth Percent (CCRF-CEM; 1.00E-5 Molar): 7.53%
GI50 (CCRF-CEM; Homo sapiens): 0.392 µM
LC50 (concentration causing 50% net cell kill) (CCRF-CEM; Homo sapiens): > 100 µM
Percent Growth (CCRF-CEM; Log10 Concentration -4.0): 1%
Percent Growth (CCRF-CEM; Log10 Concentration -5.0): 6%
Percent Growth (CCRF-CEM; Log10 Concentration -6.0): 19%
Percent Growth (CCRF-CEM; Log10 Concentration -7.0): 95%
Percent Growth (CCRF-CEM; Log10 Concentration -8.0): 99%
